Converted amounts (≈) assume the structure as drawn. Read-outs that look alike come from different tables or passages of the source.
Tests used:
Assay in all cases: microbe, parasite or virus in culture
Parameters in all cases: species or system clinical Candida isolates; CLSI broth microdilution MIC, Sabouraud dextrose broth, 35 °C, visual complete growth inhibition
C. albicans 5 strains = tested on: T1, C. albicans 5 strains; conditions: Candida albicans, 24 h
T1 construct: 5 clinical isolates
Description: (§1) The in vitro antifungal activities were determined by the broth microdilution method with sabouraud dextrose broth (BBL Microbiology Systems, Cockeysville, MD, USA), as recommended by the by the CLSI [43]. Ninety-six-well polystyrene microtitre plates containing serial dilutions of each compound were inoculated with each microorganism to yield the appropriate density (1–5 × 10^3 cells/mL) in a 100-μL final volume. Each plate included (i) fungi without the addition of the compound, (ii) just the medium, and (iii) just the compound. Topical and systemic antifungal reference drugs, clotrimazole and fluconazole, were inserted in the experiment. The plates were incubated for 24 h at 35 °C. […] Three independent experiments were performed in triplicate. The antimicrobial activity of these thiazolidinones was evaluated versus 24 clinical Gram-positive (S. aureus and S. epidermidis) and Gram-negative (E. coli and Enterobacter spp.) microorganisms. The antifungal activity of these derivatives was then tested versus 16 clinical fungal isolates belonging to the most relevant Candida spp. (C. albicans, C. tropicalis, C. parapsilosis, C. sakè, and C. glabrata). Prior to testing, each isolate was cultured on a selective medium to ensure purity and optimal growth, as previously reported. The isolates were routinely identified by the morphological aspects of colonies and by biochemical identification. The used clinical isolates were collected from specimens of patients at the ‘Azienda Policlinico Umberto I’ (Sapienza University of Rome) and were obtained from hematology/oncology and surgery departments, which also included an intensive care unit. In particular, the samples were isolated from the upper and lower respiratory tract, blood, and indwelling venous catheters; the isolates were identified by conventional methodologies. Participating subjects gave their written informed consent for this study.

C. glabrata 3 strains = tested on: T2, C. glabrata 3 strains; conditions: Nakaseomyces glabratus, 24 h, read-out: Tested Fungi (MIC Values μg/mL) / C. glabrata 3 strains / 8–32
T2 construct: 3 clinical isolates
Description: as §1

[1] = tested on: T3, C. parapsilosis 2 strains; conditions: Lodderomyces parapsilosis, 24 h, read-out: Tested Fungi (MIC Values μg/mL) / C. parapsilosis 2 strains
T3 construct: 2 clinical isolates
Description: as §1

C. tropicalis 3 strains = tested on: T4, C. tropicalis 3 strains; conditions: Candida tropicalis, 24 h, read-out: Tested Fungi (MIC Values μg/mL) / C. tropicalis 3 strains
T4 construct: 3 clinical isolates
Description: as §1

[2] = tested on: T5, Candida sake C. sakè 3 strains; conditions: Fermentozyma sake, 24 h; read-out: Tested Fungi (MIC Values μg/mL) / C. sakè 3 strains / 8–32
T5 construct: 3 clinical isolates
Description: as §1

| MIC (C. albicans 5 strains; read-out: Tested Fungi (MIC Values μg/mL) / C. albicans 5 strains / 8–32 / 32–128) | MIC (C. glabrata 3 strains) | MIC [1] | MIC (C. tropicalis 3 strains) | MIC [2] | MIC (C. albicans 5 strains; read-out: Tested Fungi (MIC Values μg/mL) / C. albicans 5 strains / 32–128) | Structure (SMILES) |
| --- | --- | --- | --- | --- | --- | --- |
| 2 µg/mL (≈ 5.8 µM) | 2 µg/mL (≈ 5.8 µM) | 2 µg/mL (≈ 5.8 µM) | 2 µg/mL (≈ 5.8 µM) | 2 µg/mL (≈ 5.8 µM) |  | Clc1ccccc1C(c1ccccc1)(c1ccccc1)n1ccnc1 [Clotrimazole] |
|  | 2 µg/mL (≈ 6.53 µM) | 2 µg/mL (≈ 6.53 µM) | 2 µg/mL (≈ 6.53 µM) | 2 µg/mL (≈ 6.53 µM) | 2 µg/mL (≈ 6.53 µM) | OC(Cn1cncn1)(Cn1cncn1)c1ccc(F)cc1F [Fluconazole] |
